Source: patent publication US10017459B2, “β-substituted β-amino acids and analogs as chemotherapeutic agents and uses thereof” (Quadriga Biosciences, Inc., priority 2015, dated 2018)

Tests used:
LN229 = assay: cells; type: cell-based; conditions: Homo sapiens, LN-229, read-out: IC50 (in vitro toxicity)
U251 = assay: cells; type: cell-based; conditions: Homo sapiens, U-251, read-out: IC50 (in vitro toxicity)
[1] = test system: LLCPK cells conditionally expressing hLAT1
799E = assay: In vitro cytotoxicity, 799E; type: cell-based; conditions: read-out: IC50 (in vitro toxicity)
KMS34 = assay: cells; type: cell-based; conditions: KMS-34, read-out: IC50 (in vitro toxicity)
MDA-MB-231 [2] = assay: Triple negative breast cancer study, IV dosing; type: in vivo, mouse; conditions: IV once a week for 8 weeks
Experimental: The efficacy of compounds provided by the present disclosure was evaluated on a triple negative breast cancer xenograft model—MDA-MB-231. Human triple negative breast cancer cells were implanted into the flank of nude mice and the study was initiated after the volume of the tumors was 150 mm^3. The animals were IV dosed once a week for 8 weeks with either vehicle or 5 mg/kg of compound (5), or 20 mg/kg compound (7). The tumor volume, body weight, white blood cell count, and granulocyte count were determined during the study and 12 days after the final dose was administered.

RPMI8266 = assay: cells; type: cell-based; conditions: RPMI8266, read-out: IC50 (in vitro toxicity)
MCF7 = assay: In vitro cytotoxicity, MCF7; type: cell-based; conditions: Homo sapiens, MCF7, read-out: IC50 (in vitro toxicity)
PC3 = assay: cells; type: cell-based; conditions: Homo sapiens, PC-3, read-out: IC50 (in vitro toxicity)
U251 MG = assay: Orthotopic glioblastoma study (Example 84); type: in vivo, mouse; conditions: 5 mg/kg and 10 mg/kg IV once weekly for 4 weeks
Experimental: The efficacy of compounds provided by the present disclosure was evaluated using an orthotopic luciferase human glioblastoma model—U251 MG. Human glioblastoma cells were intracolonically injected (3×10^5 cells/3 μL) into athymic mice (female, 4-5 weeks-old, nu/un homozygous). Treatment began when the BLI reached a log-phase growth, at about 14 days after injection. Ten mice were assigned to each arm of the study. The mice were dosed with vehicle (IP, once weekly for 4 weeks), compound (5) (5 mg/kg, IV once weekly for 4 weeks), compound (5) (10 mg/kg, IV once weekly for 4 weeks), compound (40) (10 mg/kg, IV once weekly for 4 weeks), or compound (50) (20 mg/kg, IV single dose). The tumor volume was measured using bioluminescence imaging.

G55 = assay: cells; type: cell-based; conditions: read-out: IC50 (in vitro toxicity)
MDA-MB-231 [3] = assay: Breast cancer xenograft study, IP dosing; type: in vivo, mouse
Experimental: The efficacy of compounds provided by the present disclosure was evaluated on a triple negative breast cancer xenograft model—MDA-MB-231. The tumors were implanted into mice and the study was initiated after the volume of the tumors was 140 mm^3. The animals were IP dosed once a week or 3 times per week for 3 weeks with either vehicle or 1.25 mg/kg, 2.5 mg/kg, or 5 mg/kg of compound (5). The tumor volume, body weight, white blood cell count, and granulocyte count were determined during the study and 20 days after the final dose was administered. […] Tumor growth remained about 90% suppressed 20 days post-dosing following the 5 mg/kg treatment regimens.

Mia-PaCa2 = assay: In vitro cytotoxicity, Mia-PaCa2; type: cell-based; conditions: Homo sapiens, MIA PaCa-2, read-out: IC50 (in vitro toxicity)

In the case of `Cc1ccc(N(CCCl)CCCl)cc1C[C@H](N)CC(=O)O` [Compound 5, (3S)-3-Amino-4-[5-[bis(2-chloroethyl)amino]-2-methyl-phenyl]butanoic Acid], the IC50 (LN229) is reported as under 100 µM, the IC50 (U251) is reported as under 100 µM and the “IC50, S isomer compared with R isomer” value [1] is reported as “significantly less than the IC50 of the R isomer”. For the same compound, the IC50 (799E) was under 100 µM, the IC50 (KMS34) was over 100 µM and the body weight (MDA-MB-231 [2]) was “maintained weight”. The myelosuppression (MDA-MB-231 [2]) was “not dectected”, the tumor growth suppression (MDA-MB-231 [2]; nude mice, 5 mg/kg compound (5), 20 mg/kg compound (7)) was “dose-dependent tumor growth suppression” and the IC50 (RPMI8266) was over 100 µM. The IC50 (MCF7) was under 100 µM, the IC50 (PC3) was under 100 µM and the “glioblastoma tumor growth (bioluminescence imaging)” value (U251 MG) was “dose-dependent suppression of glioblastoma tumor growth”. For the same compound, the IC50 (G55) was under 100 µM, the tumor growth post-treatment (MDA-MB-231 [3]; 1.25 mg/kg and 2.5 mg/kg regimens, IP) was “demonstrated a dose response” and the “growth of the tumors” value (MDA-MB-231 [3]; 2.5 mg/kg and 5 mg/kg dosing regimens, IP once a week or 3 times per week for 3 weeks) was “nearly completely suppressed”. For the same compound, the “tumor growth suppression 20 days post-dosing” value (MDA-MB-231 [3]; 5 mg/kg treatment regimens, IP) was “about 90%”, the animal body weights (MDA-MB-231 [3]; all dosing regimens) was “increased” and the “white blood cell count and granulocyte count” value (MDA-MB-231 [3]; during and following treatment, all dosing regimens) was “remained within normal range”. For the same compound, the IC50 (Mia-PaCa2) was under 100 µM.
